Measured values taken from US12715865B2, “Modulators of the integrated stress response pathway” (EVOTEC INTERNATIONAL GMBH, priority 2020, dated 2026).
Read-outs that look alike come from different tables or passages of the source.

System: Tunicamycin induced ISR (ATF4) in wild-type HEK293 cells
Assay: HEK-ATF4 High Content Imaging assay (ATF4 signal ratio between nucleus and cytoplasm)
Type: cell-based
Conditions: prevention of Tunicamycin induced ISR, 6 hrs incubation, read-out: Activity (IC50, HEK-ATF4 readout)
Protocol: II Biological Assay HEK-ATF4 High Content Imaging Assay
Example compounds were tested in the HEK-ATF4 High Content Imaging assay to assess their pharmacological potency to prevent Tunicamycin induced ISR. Wild-type HEK293 cells were plated in 384-well imaging assay plates at a density of 12,000 cells per well in growth medium (containing DMEM/F12, 10% FBS, 2 mM L-Glutamine, 100 U/mL Penicillin-100 μg/mL Streptomycin) and incubated at 37° C., 5% CO2. 24-hrs later, the medium was changed to 50 μl assay medium per well (DMEM/F12, 0.3% FBS, 2 mM L-Glutamine, 100 U/mL Penicillin-100 μg/mL Streptomycin). Example compounds were serially diluted in dimethyl sulfoxide (DMSO), spotted into intermediate plates and prediluted with assay medium containing 3.3 μM Tunicamycin to give an 11-fold excess of final assay concentration. In addition to the example compound testing area, the plates also contained multiples of control wells for assay normalization purposes, wells containing Tunicamycin but no example compounds (High control), as well as wells containing neither example compound nor Tunicamycin (Low control). The assay was started by transferring 5 μl from the intermediate plate into the assay plates, followed by incubation for 6 hrs at 37° C., 5% CO2. Subsequently, cells were fixed (4% PFA in PBS, 20 min at room temperature) and submitted to indirect ATF4 immunofluorescence staining (primary antibody rabbit anti ATF4, clone D4B8, Cell Signaling Technologies; secondary antibody Alexa Fluor 488 goat anti-rabbit IgG (H+L), Thermofisher Scientific). Nuclei were stained using Hoechst dye (Thermofisher Scientific), and plates were imaged on an Opera Phenix High Content imaging platform equipped with 405 nm and 488 nm excitation. Finally, images were analyzed using script based algorithms. The main readout HEK-ATF4 monitored the ATF4 signal ratio between nucleus and cytoplasm. Tunicamycin induced an increase in the overall ATF4 ratio signal, which was prevented by ISR modulating example compounds. In addition, HEK-CellCount readout was derived from counting the number of stained nuclei corresponding to healthy cells. This readout served as an internal toxicity control.

Structure (SMILES)	IC50 (Homo sapiens, HEK293, 6 h) [nM]	IC50 [nM]
O=C(COc1cnc(Cl)c(F)c1)NC1CCN(c2nnc(-c3ccc(Cl)cc3)o2)CC1 [Example 2, 2-[(6-chloro-5-fluoropyridin-3-yl)oxy]-N-{1-[5-(4-chlorophenyl)-1,3,4-oxadiazol-2-yl]piperidin-4-yl}acetamide]	1 to 500	–
O=C(COc1ccc(Cl)c(F)c1)N[C@H]1[C@@H]2CN(c3nnc(-c4ccc(Cl)cc4)o3)C[C@@H]21 [Example 7, 2-(4-Chloro-3-fluorophenoxy)-N-[(1R,5S,6R)-3-[5-(4-chlorophenyl)-1,3,4-oxadiazol-2-yl]-3-azabicyclo[3.1.0]hexan-6-yl]acetamide]	500 to 2000	–
O=C(COc1ccc(Cl)c(F)c1)NC1CCCN(c2nnc(-c3ccc(Cl)cc3)o2)CC1 (centres unmarked) [Example 6, 2-(4-chloro-3-fluorophenoxy)-N-{1-[5-(4-chlorophenyl)-1,3,4-oxadiazol-2-yl]azepan-4-yl}acetamide]	500 to 2000	–
O=C(COc1ccc(Cl)c(F)c1)N[C@@H]1CCCN(c2nnc(-c3ccc(Cl)cc3)o2)CC1 [Example 14, 2-(4-chloro-3-fluorophenoxy)-N-[(4R)-1-[5-(4-chlorophenyl)-1,3,4-oxadiazol-2-yl]azepan-4-yl]acetamide]	2000 to 15000	–
O=C(COc1ccc(Cl)c(F)c1)N[C@H]1CCN(c2nnc(-c3ccc(Cl)cc3)o2)C[C@@H]1O (stereo in doubt) [Example 12, 2-(4-Chloro-3-fluorophenoxy)-N-[(3S,4S)-1-[5-(4-chlorophenyl)-1,3,4-oxadiazol-2-yl]-3-hydroxypiperidin-4-yl]acetamide]	1 to 500	–
O=C(COc1ccc(Cl)c(F)c1)NC1CCN(c2nnc(-c3ccc(Cl)cn3)o2)CC1 [Example 1, 2-(4-chloro-3-fluorophenoxy)-N-{1-[5-(5-chloropyridin-2-yl)-1,3,4-oxadiazol-2-yl]piperidin-4-yl}acetamide]	1 to 500	–
O=C(COc1ccc(Cl)c(F)c1)N[C@@H]1CCN(c2nnc(-c3ccc(Cl)cc3)o2)C[C@H]1O (stereo in doubt) [Example 11, 2-(4-Chloro-3-fluorophenoxy)-N-[(3R,4R)-1-[5-(4-chlorophenyl)-1,3,4-oxadiazol-2-yl]-3-hydroxypiperidin-4-yl]acetamide]	–	500 to 2000
O=C(COc1ccc(Cl)c(F)c1)NC1CCN(c2nnc(CCCC(F)(F)F)o2)CC1 [Example 5, 2-(4-Chloro-3-fluorophenoxy)-N-{1-[5-(4,4,4-trifluorobutyl)-1,3,4-oxadiazol-2-yl]piperidin-4-yl}acetamide]	500 to 2000	–
O=C(COc1ccc(Cl)c(F)c1)NC1CCN(c2nnc(N3CC(OC(F)(F)F)C3)o2)CC1 [Example 10, 2-(4-chloro-3-fluorophenoxy)-N-(1-{5-[3-(trifluoromethoxy)azetidin-1-yl]-1,3,4-oxadiazol-2-yl}piperidin-4-yl)acetamide]	1 to 500	–
O=C(COc1ccc(Cl)c(F)c1)N[C@H]1CCCN(c2nnc(-c3ccc(Cl)cc3)o2)CC1 [Example 13, 2-(4-Chloro-3-fluorophenoxy)-N-[(4S)-1-[5-(4-chlorophenyl)-1,3,4-oxadiazol-2-yl]azepan-4-yl]acetamide]	500 to 2000	–
O=C(COc1ccc(Cl)c(F)c1)NC1CCN(c2nnc(-c3ccc(Cl)cc3)o2)CC1 [Example 4, 2-(4-chloro-3-fluoro-phenoxy)-N-[1-[5-(4-chlorophenyl)-1,3,4-oxadiazol-2-yl]-4-piperidyl]acetamide]	1 to 500	–
O=C(COc1ccc(Cl)c(F)c1)NN1CCN(c2nnc(-c3ccc(Cl)cc3)o2)CC1 [Example 8, 2-(4-Chloro-3-fluorophenoxy)-N-{4-[5-(4-chlorophenyl)-1,3,4-oxadiazol-2-yl]piperazin-1-yl}acetamide]	1 to 500	–
O=C(COc1ccc(Cl)c(F)c1)N[C@@H]1CCN(c2nnc(-c3ccc(Cl)cc3)o2)C[C@H]1O (stereo in doubt) [Example 3, 2-(4-chloro-3-fluorophenoxy)-N-[(3R*,4R*)-1-[5-(4-chlorophenyl)-1,3,4-oxadiazol-2-yl]-3-hydroxypiperidin-4-yl]acetamide]	–	1 to 500
O=C(COc1ccc(Cl)c(F)c1)NC1CCN(c2nnc(OCCOC(F)(F)F)o2)CC1 [Example 9, 2-(4-chloro-3-fluorophenoxy)-N-(1-{5-[2-(trifluoromethoxy)ethoxy]-1,3,4-oxadiazol-2-yl}piperidin-4-yl)acetamide]	1 to 500	–
